Measurements: patent publication US11731970B1, “Pyrrolo[2,3-b]quinoline compounds as antibacterial agents” (KING FAISAL UNIVERSITY, priority 2023, dated 2023)
Converted amounts (≈) assume the structure as drawn. Like-named read-outs stand apart in the source and are kept apart here.

Assays:
[1] = test system: Escherichia coli MTCC 443; assay: Antibacterial MIC, CLSI M07-A10 dilution; assay type: cell-based; details: MTCC443
[2] = test system: Staphylococcus epidermidis; assay: Antibacterial MIC, CLSI M07-A10 dilution; assay type: cell-based
[3] = test system: Klebsiella pneumonia MTCC 618; assay: Antibacterial MIC, CLSI M07-A10 dilution; assay type: cell-based; details: Klebsiella pneumoniae, MTCC618
DNA gyrase from E. coli = molecular target: T1, DNA gyrase from E. coli (Escherichia coli, UniProt P0AES4+P0AES6); assay: E. coli DNA gyrase inhibition (Inspiralis assay); assay type: biochemical
T1 construct: purchased Inspiralis
T1 sequence (P0AES4 whole entry, one chain of several): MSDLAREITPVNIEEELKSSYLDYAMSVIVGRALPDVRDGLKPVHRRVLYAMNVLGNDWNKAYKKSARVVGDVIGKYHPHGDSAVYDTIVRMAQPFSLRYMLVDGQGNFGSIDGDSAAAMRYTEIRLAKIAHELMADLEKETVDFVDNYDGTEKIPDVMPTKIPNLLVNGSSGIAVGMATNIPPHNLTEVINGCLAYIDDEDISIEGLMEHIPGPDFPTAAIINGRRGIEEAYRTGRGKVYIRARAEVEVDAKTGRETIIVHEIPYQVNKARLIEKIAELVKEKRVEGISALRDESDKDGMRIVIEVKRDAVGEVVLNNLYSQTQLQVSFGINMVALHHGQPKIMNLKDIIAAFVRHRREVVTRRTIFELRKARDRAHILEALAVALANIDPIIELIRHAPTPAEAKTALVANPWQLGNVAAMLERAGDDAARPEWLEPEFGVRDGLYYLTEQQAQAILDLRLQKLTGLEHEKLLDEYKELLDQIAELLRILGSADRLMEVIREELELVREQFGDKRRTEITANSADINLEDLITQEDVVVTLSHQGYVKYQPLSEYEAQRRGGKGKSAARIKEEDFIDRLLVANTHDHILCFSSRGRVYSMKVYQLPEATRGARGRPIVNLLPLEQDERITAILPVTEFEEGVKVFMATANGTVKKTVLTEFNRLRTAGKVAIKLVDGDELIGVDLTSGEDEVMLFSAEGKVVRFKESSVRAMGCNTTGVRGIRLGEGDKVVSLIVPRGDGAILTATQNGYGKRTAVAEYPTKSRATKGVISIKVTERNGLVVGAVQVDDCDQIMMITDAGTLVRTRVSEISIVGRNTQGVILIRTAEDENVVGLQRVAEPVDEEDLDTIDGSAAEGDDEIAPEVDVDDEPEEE
Experimental: Inhibitory potencies were investigated utilizing the Inspiralis assay on streptavidin-coated 96-well microtiter plates. First, the plates were rehydrated with buffer (20 mM Tris-HCl with pH 7.6, 0.01% w/v BSA, 0.05% v/v Tween 20, 137 mM NaCl) and the biotinylated oligonucleotide was then immobilized. After washing off the unbound oligonucleotide, the enzyme test was performed. The reaction volume of 30 μL in buffer (35 mM Tris×HCl with pH 7.5, 4 mM MgCl2, 24 mM KCl, 2 mM DTT, 1.8 mM spermidine, 1 mM ATP, 6.5% w/v glycerol, 0.1 mg/mL albumin) contained 1.5 U of DNA gyrase from E. coli, 0.75 μg of relaxed pNO1 plasmid, and 3 μL solution of the inhibitor in 10% DMSO and 0.008% Tween 20. Reaction solutions were incubated at 37° C. for 30 min. After that, the TF buffer (50 mM NaOAc with pH 5.0, 50 mM NaCl and 50 mM MgCl2) was added to terminate the enzymatic reaction. After additional incubation for 30 min at rt, during which biotinoligonucleotide-plasmid triplex was formed, the unbound plasmid was washed off using TF buffer and SybrGOLD in T10 buffer (10 mM Tris HCl with pH 8.0 and 1 mM EDTA) was added. The fluorescence was measured with a microplate reader (BioTek Synergy H4, excitation: 485 nm, emission: 535 nm). Initial screening was done at 100 or 10 μM concentration of inhibitors. […] GraphPad Prism software was used to calculate the IC50 values. […]

[4] = test system: Pseudomonas aeruginosa MTCC 741; assay: Antibacterial MIC, CLSI M07-A10 dilution; assay type: cell-based; details: MTCC741
[5] = test system: Bacillus subtilis MTCC 441; assay: Antibacterial MIC, CLSI M07-A10 dilution; assay type: cell-based; details: MTCC441
[6] = test system: Staphylococcus aureus ATCC 29213; assay: Antibacterial MIC, CLSI M07-A10 dilution; assay type: cell-based; details: ATCC29213
[7] = test system: Mycobacterium tuberculosis H37Rv strain; assay: Anti-tubercular alamar blue microplate MIC; assay type: cell-based; details: 168 h, M. tuberculosis H37Rv, seven days at 37° C., read-out: anti-mycobacterial activity (MIC)
[8] = test system: Staphylococcus aureus ATCC BAA-1556 (MERSA resistant); assay: Antibacterial MIC, CLSI M07-A10 dilution; assay type: cell-based; details: ATCCBAA1556
[9] = test system: Enterococcus faecium ATCC 35667; assay: Antibacterial MIC, CLSI M07-A10 dilution; assay type: cell-based; details: ATCC35667
[10] = test system: Enterococcus faecium ATCC 51559 (VRE resistant); assay: Antibacterial MIC, CLSI M07-A10 dilution; assay type: cell-based

| SMILES | MIC ([1]; Escherichia coli MTCC 443, read-out: MIC) | MIC ([2]; read-out: MIC) | MIC ([3]; Klebsiella pneumonia MTCC 618, read-out: MIC) | IC50 (DNA gyrase from E. coli) | MIC ([4]; Pseudomonas aeruginosa MTCC 741, read-out: MIC) | MIC ([5]; Bacillus subtilis MTCC 441, read-out: MIC) | MIC [6] | MIC [7] | MIC [8] | MIC ([9]; Enterococcus faecium ATCC 35667, read-out: MIC) | MIC ([10]; Enterococcus faecium ATCC 51559 (VRE resistant), read-out: MIC) | MIC ([1]; Escherichia coli) | MIC [2] | MIC [3] | MIC ([4]; Pseudomonas aeruginosa) | MIC ([5]; Bacillus subtilis) | MIC ([9]; Enterococcus faecium) | MIC ([10]; Enterococcus faecium) |
| --- | --- | --- | --- | --- | --- | --- | --- | --- | --- | --- | --- | --- | --- | --- | --- | --- | --- | --- |
| CCCCCN(C)Cc1cc(C(=O)O)ccc1-c1cc2cc3cc(F)cc(NC)c3nc2[nH]1 [Compound 6, 4-(6-fluoro-8-(methylamino)-1H-pyrrolo[2,3-b]quinolin-2-yl)-3-((methyl(pentyl)amino)methyl)benzoic acid] | 4 µg/mL (≈ 8.92 µM) | 1 µg/mL (≈ 2.23 µM) | 1 µg/mL (≈ 2.23 µM) | 25 nM | 0.75 µg/mL (≈ 1.67 µM) | 0.5 µg/mL (≈ 1.11 µM) | 0.75 µg/mL (≈ 1.67 µM) | 4 µg/mL (≈ 8.92 µM) | 0.75 µg/mL (≈ 1.67 µM) | 0.75 µg/mL (≈ 1.67 µM) | 1 µg/mL (≈ 2.23 µM) |  |  |  |  |  |  |  |
| CN[C@H](CC(C)C)C(=O)N[C@H]1C(=O)N[C@@H](CC(N)=O)C(=O)N[C@H]2C(=O)N[C@H]3C(=O)N[C@H](C(=O)N[C@H](C(=O)O)c4cc(O)cc(O)c4-c4cc3ccc4O)[C@H](O)c3ccc(c(Cl)c3)Oc3cc2cc(c3O[C@@H]2O[C@H](CO)[C@@H](O)[C@H](O)[C@H]2O[C@H]2C[C@](C)(N)[C@H](O)[C@H](C)O2)Oc2ccc(cc2Cl)[C@H]1O [Vancomycin, reference compound] |  |  |  |  |  |  |  |  |  |  |  | > 128 µg/mL | 1 µg/mL (≈ 0.69 µM) | > 128 µg/mL | > 128 µg/mL | 0.5 µg/mL (≈ 0.345 µM) | 0.5 µg/mL (≈ 0.345 µM) | > 128 µg/mL |
